Earlier results on one compound are cited in patent US20230357095A1, “HYDROGEN NANOBUBBLES INFUSED WATER FOR […] IRRIGATION” (L'Air Liquide, Societe Anonyme pour l'Etude et …, priority 2020, published 2023).

Like-named read-outs stand apart in the source and are kept apart here.

For the series the following is noted: P=1 bar.

Consider `[HH]` [hydrogen], for which the “Saturation concentration of hydrogen in pure water” value (T=273.1 K) is 1.95 mg/L and the “Saturation concentration of hydrogen in pure water” value (T=298.1 K) is given as 1.60 mg/L.
